According to patent US4883863A, “Tripeptide derivatives and antiplasmin agents containing the same” (Nitto Boseki Co., Ltd., priority 1987, dated 1989):
Structures can show the parent of a compound that is named as a salt. Where a SMILES comes first, the peptide text is derived from it. [ ]: non-standard residue; d: D form. The star is where a group is joined. Tos = Cc1ccc(S(=O)(=O)*)cc1; Moc = COC(=O)*; For = O=C*

Columns and labels:
[1] = target: T1, plasmin (Homo sapiens, UniProt P00747); assay: Plasmin-inhibiting activity, synthetic substrate PS-994; type: biochemical; design: purchased Sankyo (Color Test α2 -D1 Kit); conditions: Table 4; PS-994, pH 7.8, 37° C.
Source text: Synthetic substrates used for testing the inhibitory activity of the inhibitors on decomposition of substrates by the enzymes were as follows. For plasmin, PS-994 (H--D--Lys(Tos)--Phe--Lys--CHA·2HCl, mfd. by NITTO BOSEKI Co., Ltd.) was used; for thrombin and trypsin, PS-915 (H--D--Phe--Pro--Arg--CHA·2HCl, mfd. by NITTO BOSEKI Co., Ltd.); for Factor Xa, PS-2000 (Z--D--Lys--(HCO)--Gly--Arg--CHA·HCl, mfd. by NITTO BOSEKI Co., Ltd.); and for kallikrein, S-2302 (H--D--Pro--Phe--Arg--pNA, mfd., by Kabi Co., Ltd.).
As plasmin, standard plasmin of Sankyo Color Test α2 -D1 Kit was used in an amount of 0.3CU/ml. As thrombin, that of Sankyo Color Test ATIII kit was used in an amount of 1.2 NIHU/ml. As trypsin, that of cord 3703 of Worthington was used in an amount of 2 μg/ml. As human Factor Xa, that of Boehringer Manheim Co., Ltd. was used in an amount of 0.25 U/ml. As human plasma kallikrein, that of Kabi Co., Ltd. was used in an amount of 0.12 U/ml. As terminating color reagents, those for Sankyo Color Test Kit were used. The reactions were carried out at 37° C. unless otherwise specified.
Each of aqueous solutions (0.1 ml) of the inhibitors which solutions were various in their respective concentrations was added to 0.4 ml of a buffer solution (a 150 mM aqueous sodium chloride solution containing 100 mM Tris, pH 7.8), and the resulting solution was heated for 5 minutes. To this solution was added 0.2 ml of plasmin solution, followed by incubation for 5 minutes, and then 0.1 ml of a PS-994 solution (10 mM) was added, and then incubated for 5 minutes. After completion of the reaction, 2.0 ml of terminating color reagent was added, and after standing for 10 minutes, absorbance at 700 nm was measured. A concentration of the inhibitor in the reaction system at which the absorbance was one-half that obtained in the absence of the inhibitor was determined as IC50.
Target sequence in this assay (P00747 581-810 limits assumed, species assumed): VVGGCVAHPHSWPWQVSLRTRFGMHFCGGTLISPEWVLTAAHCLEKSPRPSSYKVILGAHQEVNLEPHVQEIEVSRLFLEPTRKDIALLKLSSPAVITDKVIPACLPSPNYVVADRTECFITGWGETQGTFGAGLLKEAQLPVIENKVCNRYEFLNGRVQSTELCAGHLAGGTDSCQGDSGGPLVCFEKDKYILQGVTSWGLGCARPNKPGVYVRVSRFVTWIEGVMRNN
Target sequence in this assay (P00747 97-580 partner limits assumed, species assumed): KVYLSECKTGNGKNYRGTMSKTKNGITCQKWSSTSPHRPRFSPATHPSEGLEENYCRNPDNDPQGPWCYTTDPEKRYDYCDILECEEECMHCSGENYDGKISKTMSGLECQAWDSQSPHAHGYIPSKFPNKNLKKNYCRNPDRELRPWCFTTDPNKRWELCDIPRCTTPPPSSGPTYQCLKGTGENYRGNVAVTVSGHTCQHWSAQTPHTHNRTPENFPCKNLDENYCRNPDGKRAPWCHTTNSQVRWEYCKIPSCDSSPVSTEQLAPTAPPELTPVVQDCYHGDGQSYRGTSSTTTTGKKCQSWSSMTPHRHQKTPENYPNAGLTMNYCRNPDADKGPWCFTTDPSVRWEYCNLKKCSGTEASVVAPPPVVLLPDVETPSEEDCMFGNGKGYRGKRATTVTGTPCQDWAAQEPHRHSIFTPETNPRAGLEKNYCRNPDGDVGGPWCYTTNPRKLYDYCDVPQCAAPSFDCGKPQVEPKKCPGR

[2] = target: T1, plasmin; assay: Inhibitory activity on fibrin decomposition by plasmin (natural substrate); type: biochemical; design: Standard human serum (0.1 ml); from tissue; conditions: Table 4; concentration doubling time for complete dissolution, 25° C.
Protocol: The determination was carried out by the method of Okamoto et al. (see Keio Journal of Medicine, vol. 11, p. 105 (1962).
Standard human serum (0.1 ml), 0.4 ml of each of 1/20 M potassium phosphate sodium physiological salt buffer solutions (pH 7.4) containing various concentrations of each inhibitor, and 0.1 ml of a solution of streptokinase in physiological saline (1000 U/ml) were stirred and then cooled at 0° C. for 10 minutes. Thereto was added 0.05 ml of a solution of thrombin in physiological saline (100 NIHU/ml, mfd. by Parke Davis Co. Ltd.) at 0° C. After standing for 1 minute, 0.3 ml of a 0.33% solution of bovine fibrinogen (F-4753, available from Sigma Chemical Co.) in physiological saline was added, and the resulting mixture was allowed to stand at 25° C. The solubility was measured every minute by the standard of judgement of Nakamura (see Allergy, vol. 5, p. 1 (1956)) and the time required for complete dissolution was determined. A concentration of the inhibitor at which said time is twice that required in the absence of the inhibitor was determined as IC50.
Target sequence in this assay (P00747 581-810 limits assumed): as the sequence (P00747 581-810 limits assumed, species assumed) above
Target sequence in this assay (P00747 97-580 partner limits assumed): as the sequence (P00747 97-580 partner limits assumed, species assumed) above

Compound | IC50 [1] | IC50 [2]
COC(=O)N[C@H](CCCCNS(=O)(=O)c1ccc(C)cc1)C(=O)N[C@@H](Cc1ccccc1)C(=O)N[C@H](C=O)CCCCN [Compound 2, N-α-Methoxycarbonyl-N-ε-(p-tosyl)-D-lysyl-L-phenylalanyl-L-lysinal hydrochloride] (Moc-[dK](Tos)-Phe-Lys-aldehyde) | 7.9 nM | 230 nM
Cc1ccc(S(=O)(=O)NCCCC[C@@H](NC=O)C(=O)N[C@@H](Cc2ccccc2)C(=O)N[C@H](C=O)CCCCN)cc1 [Compound 4, N-α-Formyl-N-ε-(p-tosyl)-D-lysyl-L-phenylalanyl-L-lysinal hydrochloride] (For-[dK](Tos)-Phe-Lys-aldehyde) | 96 nM | 240 nM
